Assay results from ChEMBL document CHEMBL5390231, “Development of small molecule inhibitors targeting RNA helicase DHX33 as anti-cancer agents” (Bioorg Med Chem Lett, 2023).

What was measured:
U-251 = assay: Antiproliferative activity against human U-251MG cells overexpressing DHX33 assessed as inhibition of cell growth measured after 48 hrs by CCK-8 assay; type: functional, cell-based; conditions: U-251, 48 h
[1] = molecular target: T1, Probable ATP-dependent RNA helicase DHX40 (Homo sapiens, UniProt Q8IX18); assay: Inhibition of N-terminal thioredoxin-tagged human recombinant DHX40 transformed in Escherichia coli BL21(DE3)pLysS cells
T1 sequence (Q8IX18 whole entry): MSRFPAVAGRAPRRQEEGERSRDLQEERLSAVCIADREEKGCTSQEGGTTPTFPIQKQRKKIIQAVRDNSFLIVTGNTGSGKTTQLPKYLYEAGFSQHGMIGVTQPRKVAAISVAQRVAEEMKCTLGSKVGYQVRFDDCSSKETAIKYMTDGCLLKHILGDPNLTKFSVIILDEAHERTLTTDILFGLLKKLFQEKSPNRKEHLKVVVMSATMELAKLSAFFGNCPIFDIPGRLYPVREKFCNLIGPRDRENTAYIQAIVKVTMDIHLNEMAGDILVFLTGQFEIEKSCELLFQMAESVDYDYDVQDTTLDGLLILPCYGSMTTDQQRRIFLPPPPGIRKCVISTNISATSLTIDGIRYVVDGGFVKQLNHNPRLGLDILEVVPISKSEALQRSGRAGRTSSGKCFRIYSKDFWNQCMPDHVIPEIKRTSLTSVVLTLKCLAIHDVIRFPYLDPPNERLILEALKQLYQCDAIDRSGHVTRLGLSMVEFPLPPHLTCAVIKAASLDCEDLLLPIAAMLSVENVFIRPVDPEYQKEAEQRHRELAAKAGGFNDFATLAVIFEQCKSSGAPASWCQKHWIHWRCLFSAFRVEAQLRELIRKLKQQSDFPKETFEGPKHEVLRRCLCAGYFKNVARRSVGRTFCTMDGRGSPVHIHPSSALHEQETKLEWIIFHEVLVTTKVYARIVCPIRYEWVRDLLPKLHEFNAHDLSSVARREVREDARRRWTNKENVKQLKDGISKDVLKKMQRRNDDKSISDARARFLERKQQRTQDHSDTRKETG

Nucleolar RNA helicase 2 = molecular target: T2, Nucleolar RNA helicase 2 (Homo sapiens, UniProt Q9NR30); assay: Inhibition of N-terminal thioredoxin-tagged human recombinant DDX21 transformed in Escherichia coli BL21(DE3)pLysS cells
T2 sequence (Q9NR30 whole entry): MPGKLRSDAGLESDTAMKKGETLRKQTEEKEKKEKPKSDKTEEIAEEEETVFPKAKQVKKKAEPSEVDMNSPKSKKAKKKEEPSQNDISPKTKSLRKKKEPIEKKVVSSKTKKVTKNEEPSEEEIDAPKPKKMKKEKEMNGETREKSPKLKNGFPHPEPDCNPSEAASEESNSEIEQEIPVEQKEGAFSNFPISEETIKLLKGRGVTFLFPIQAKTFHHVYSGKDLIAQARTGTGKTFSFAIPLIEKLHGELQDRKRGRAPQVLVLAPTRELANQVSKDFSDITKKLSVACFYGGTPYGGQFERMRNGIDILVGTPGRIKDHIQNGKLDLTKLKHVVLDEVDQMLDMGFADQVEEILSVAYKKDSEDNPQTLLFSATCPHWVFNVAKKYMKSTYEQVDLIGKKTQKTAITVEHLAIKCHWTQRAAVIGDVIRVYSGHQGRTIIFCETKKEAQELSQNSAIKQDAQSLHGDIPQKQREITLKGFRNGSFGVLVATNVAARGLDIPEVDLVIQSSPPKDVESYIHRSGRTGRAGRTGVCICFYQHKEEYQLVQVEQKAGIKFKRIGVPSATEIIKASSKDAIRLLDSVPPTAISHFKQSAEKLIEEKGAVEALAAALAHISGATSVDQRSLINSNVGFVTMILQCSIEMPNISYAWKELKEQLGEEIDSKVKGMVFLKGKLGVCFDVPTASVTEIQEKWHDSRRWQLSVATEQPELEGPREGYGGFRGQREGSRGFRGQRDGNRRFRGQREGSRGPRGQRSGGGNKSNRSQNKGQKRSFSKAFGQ

[2] = molecular target: T3, Probable ATP-dependent RNA helicase DHX35 (Homo sapiens, UniProt Q9H5Z1); assay: Inhibition of N-terminal thioredoxin-tagged human recombinant DHX35 transformed in Escherichia coli BL21(DE3)pLysS cells
T3 sequence (Q9H5Z1 whole entry): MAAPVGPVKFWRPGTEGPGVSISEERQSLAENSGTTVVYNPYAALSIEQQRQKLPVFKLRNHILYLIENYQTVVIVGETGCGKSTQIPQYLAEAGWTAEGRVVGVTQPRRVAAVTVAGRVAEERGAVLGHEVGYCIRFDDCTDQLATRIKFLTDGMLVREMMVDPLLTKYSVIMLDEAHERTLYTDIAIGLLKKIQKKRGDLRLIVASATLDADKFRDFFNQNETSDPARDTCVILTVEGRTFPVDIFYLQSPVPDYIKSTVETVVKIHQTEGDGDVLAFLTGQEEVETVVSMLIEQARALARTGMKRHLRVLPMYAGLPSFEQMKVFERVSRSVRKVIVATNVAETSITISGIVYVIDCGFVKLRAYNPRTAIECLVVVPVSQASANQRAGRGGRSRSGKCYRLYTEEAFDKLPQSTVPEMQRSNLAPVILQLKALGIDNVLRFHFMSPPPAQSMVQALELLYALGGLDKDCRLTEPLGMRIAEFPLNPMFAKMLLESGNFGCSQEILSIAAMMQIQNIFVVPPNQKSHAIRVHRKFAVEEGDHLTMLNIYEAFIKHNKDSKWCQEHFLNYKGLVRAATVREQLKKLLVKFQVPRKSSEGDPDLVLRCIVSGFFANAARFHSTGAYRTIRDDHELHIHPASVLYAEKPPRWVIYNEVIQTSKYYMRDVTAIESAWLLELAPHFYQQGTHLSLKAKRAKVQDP

[3] = Microsomal stability in human liver microsome assessed as intrinsic clearance; type: ADME; conditions: liver microsomes, read-out: CLH

- IC50 (U-251): 0.02 µM
- IC50 [1]: > 100 µM
- IC50 (Nucleolar RNA helicase 2): > 100 µM
- IC50 [2]: 117 µM
- CLint scaled [3]: 22.4 mL/min/kg
SMILES: COc1ccc2nc(NC(=O)c3cc(C)n(-c4sc(C)cc4C#N)c3C)[nH]c2c1
